# Assay results published in patent US20210283176A1, “CALCIUM BINDER FOR USE IN PREVENTING STILLBIRTH” (Nutreco IP Assets B.V, priority 2017, published 2021).
# Test system: sows
# Details: phosphoric acid 0.01 mol/liter (1 g/L), 25 sows, control 1.6 (24 sows)
# Method: A calcium binder (phosphoric acid, PhA)) was added in a concentration of 0.01 mol/liter (corresponding to 1 g/L of phosphoric acid). The diets fed to the sows were the same.
compound,measurement,value
"O=P(O)(O)O [PhA, phosphoric acid]","Stillborn piglets, #",1.1
